Test results reported in ChEMBL document CHEMBL1142467, “A novel monoacylglycerol lipase inhibitor with analgesic and anti-inflammatory activity” (Bioorg Med Chem Lett, 2008).
The source made the active and inactive calls. The rule behind the calls is not given here.

What was measured:
[1] = biological target: T1, Fatty-acid amide hydrolase 1 (Rattus norvegicus) (UniProt P97612); experiment: Inhibition of Sprague-Dawley rat FAAH at 100 uM
T1 sequence (whole entry): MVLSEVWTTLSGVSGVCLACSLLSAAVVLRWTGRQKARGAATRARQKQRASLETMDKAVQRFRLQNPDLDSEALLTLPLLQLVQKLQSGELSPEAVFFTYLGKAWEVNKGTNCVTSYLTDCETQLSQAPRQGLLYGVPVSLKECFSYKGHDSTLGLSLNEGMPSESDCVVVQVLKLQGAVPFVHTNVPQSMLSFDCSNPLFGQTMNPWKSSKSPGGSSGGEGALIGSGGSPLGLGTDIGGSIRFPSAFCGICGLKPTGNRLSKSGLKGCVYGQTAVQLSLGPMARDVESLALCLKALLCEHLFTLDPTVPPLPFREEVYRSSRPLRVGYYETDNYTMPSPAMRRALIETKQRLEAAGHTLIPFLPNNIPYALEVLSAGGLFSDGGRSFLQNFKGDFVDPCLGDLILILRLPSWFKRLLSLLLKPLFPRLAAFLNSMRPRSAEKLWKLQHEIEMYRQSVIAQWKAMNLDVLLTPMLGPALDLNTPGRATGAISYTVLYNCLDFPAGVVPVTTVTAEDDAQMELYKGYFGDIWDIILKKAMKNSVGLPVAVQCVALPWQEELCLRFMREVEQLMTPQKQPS

[2] = biological target: T2, Monoglyceride lipase (Rattus norvegicus) (UniProt Q8R431); experiment: Inhibition of Sprague-Dawley rat MGL at 100 uM
T2 sequence (whole entry): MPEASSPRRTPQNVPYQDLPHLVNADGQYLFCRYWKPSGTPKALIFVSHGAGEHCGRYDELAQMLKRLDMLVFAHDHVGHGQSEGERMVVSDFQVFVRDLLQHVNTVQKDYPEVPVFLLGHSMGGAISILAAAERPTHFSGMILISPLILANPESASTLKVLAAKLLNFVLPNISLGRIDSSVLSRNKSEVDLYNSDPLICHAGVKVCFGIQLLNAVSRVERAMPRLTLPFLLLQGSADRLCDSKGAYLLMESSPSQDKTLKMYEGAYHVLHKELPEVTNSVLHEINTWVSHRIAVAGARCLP

Rattus norvegicus [3] = experiment: Antiinflammatory activity against carrageenan-induced foot paw edema in rat at 0.01 mmol/kg, ip; format: functional
Rattus norvegicus [4] = experiment: Analgesic activity in rat assessed as inhibition of acetic acid-induced writhing responses at 36 mg/kg, ip; format: functional, organism-based; parameters: dose 36 mg/kg
Monoglyceride lipase = biological target: T3, Monoglyceride lipase (Rattus norvegicus, UniProt Q8R431); experiment: Inhibition of Sprague-Dawley rat MGL
T3 sequence (Q8R431 whole entry): T2 sequence (whole entry)

Rattus norvegicus [5] = experiment: Analgesic activity in rat assessed as inhibition of acetic acid-induced writhing responses at 3.6 mg/kg, ip; format: functional, organism-based; parameters: dose 3.6 mg/kg
Rattus norvegicus [6] = experiment: Antiinflammatory activity against carrageenan-induced foot paw edema in rat; format: functional

For `NC[C@@H](N)CCCCc1ccccc1`, the inhibition [1] was 0% and the inhibition [2] was 0%.
`COc1ccc2c(c1)c(CC(=O)O)c(C)n2C(=O)c1ccc(Cl)cc1` [INDOMETHACIN] showed an inhibition in vivo at 10 µmol/kg (Rattus norvegicus [3]) of 47%.
`CCCCCCCCCCCCCCC(=O)C(=O)NCCO` gave an inhibition [1] of 23.8% and an inhibition [2] of 27.5%.
`CCCCCCOc1ccc(CCCC[C@H](N)CN)cc1` showed an inhibition [1] of 30.9% and an inhibition [2] of 25.9%.
Work on `CCCCCCCC/C=C\CCCCCC[C@@H](N)C(N)=O` yielded an inhibition [1] of 24% and an inhibition [2] of 0%.
`CCCCCCCCCCCCCC[C@@H](N)CO` showed an inhibition [1] of 31.3% and an inhibition [2] of 30%.
With `CCCCCCCC/C=C\CCCCCC[C@@H](N)CN` the inhibition [1] was 25.9%, the inhibition [2] was 42.2% and the Activity (Rattus norvegicus [4]) was “Active”. It also gave a Ki (Monoglyceride lipase) of 39 µM.
In the case of `CCCCCCCC/C=C\CCCCCC[C@H](N)CN`, the Activity (Rattus norvegicus [5]) is reported as “Active”, the inhibition [1] is reported as 4.9% and the inhibition [2] is reported as 49.9%. For the same compound, the ED50 (Rattus norvegicus [6]) was 10 µmol/kg and the Ki (Monoglyceride lipase) was 21.8 µM.
With `CCCCCCCCCCCCCCC(N)CN` (stereo not given) the inhibition [1] was 31.2%, the inhibition [2] was 30.3% and the Ki (Monoglyceride lipase) was 58.7 µM.
With `CCCCCCCCCCCCCC[C@H](N)CO` the inhibition [1] was 33.6% and the inhibition [2] was 31.5%.
